For 24 compounds, IC50 results are on record in patent publication US7704995B2 (Exelixis, Inc., priority 2003, dated 2010).

For one assay, the target named is T1, Chk1 (Homo sapiens, UniProt O14757).
T1 construct: purchased Upstate Biotechnology
T1 sequence (O14757 1-476): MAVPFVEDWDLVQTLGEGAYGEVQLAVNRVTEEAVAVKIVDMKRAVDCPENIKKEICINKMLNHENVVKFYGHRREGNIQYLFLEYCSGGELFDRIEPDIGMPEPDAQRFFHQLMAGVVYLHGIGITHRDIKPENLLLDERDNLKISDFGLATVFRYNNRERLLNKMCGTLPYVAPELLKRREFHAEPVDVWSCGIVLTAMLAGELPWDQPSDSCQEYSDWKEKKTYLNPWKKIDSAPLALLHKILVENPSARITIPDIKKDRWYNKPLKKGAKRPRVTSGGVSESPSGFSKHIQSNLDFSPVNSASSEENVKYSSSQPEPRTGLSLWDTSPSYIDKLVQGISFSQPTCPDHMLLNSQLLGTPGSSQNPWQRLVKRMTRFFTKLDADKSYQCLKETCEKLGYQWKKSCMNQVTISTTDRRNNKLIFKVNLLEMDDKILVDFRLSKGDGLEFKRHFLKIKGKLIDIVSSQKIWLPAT
In words: Chk1 kinase assay: incorporation of γ-33P ATP into immobilized myelin basic protein. The format is biochemical. Particulars: Table 11, Chk1 only; class symbols A-D; read-out: Chk1 IC50. In short, it runs like this: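 Plates coated with MBP, then kinase reactions in Hepes pH 7.6 buffer with 10 mM MgCl2 and 1% DMSO were started by adding unlabeled plus γ-33P ATP (10 μM for Chk1 at 10 nM enzyme; 30 μM for Chk2 at 20 nM enzyme). After 1 h at room temperature, plates were washed and counted.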
Regarding `COc1ccc(C(=O)NCc2cccc(-c3cnc(N)c(C(=O)N[C@H]4CCCNC4)n3)c2)cc1` [Example 932, 3-amino-6-{3-[({[4-(methyloxy)phenyl]carbonyl}amino)methyl]phenyl}-N-[(3S)-piperidin-3-yl]pyrazine-2-carboxamide], the half-maximal inhibitory concentration (IC50) is less than 50 nM.

For the compound `CC(C)(C)OC(=O)NCc1cccc(-c2cnc(N)c(C(=O)N[C@H]3CCCN(C(=O)OC(C)(C)C)C3)n2)c1` [Example 833, 1,1-dimethylethyl (3S)-3-{[(3-amino-6-{3-[({[(1,1-dimethylethyl)oxy]carbonyl}amino)methyl]phenyl}pyrazin-2-yl)carbonyl]amino}piperidine-1-carboxylate], the 50% inhibitory concentration (IC50) is 50 to 1000 nM.

With `Nc1ncc(-c2cccc(C(=O)NCc3ccc4ccccc4c3)c2)nc1C(=O)N[C@H]1CCCNC1` [Example 851, 3-amino-6-(3-{[(naphthalen-2-ylmethyl)amino]carbonyl}phenyl)-N-[(3S)-piperidin-3-yl]pyrazine-2-carboxamide], the IC50 was less than 50 nM.

Turning to `COc1ccc(NC(=O)NCc2cccc(-c3cnc(N)c(C(=O)N[C@H]4CCCNC4)n3)c2)cc1` [Example 957, 3-amino-6-(3-{[({[4-(methyloxy)phenyl]amino}carbonyl)amino]methyl}phenyl)-N-[(3S)-piperidin-3-yl]pyrazine-2-carboxamide], the IC50 was less than 50 nM.

For `Nc1ncc(-c2cccc(C(=O)NCCN3CCCCC3)c2)nc1C(=O)N[C@H]1CCCNC1` [Example 877, 3-amino-N-[(3S)-piperidin-3-yl]-6-(3-{[(2-piperidin-1-ylethyl)amino]carbonyl}phenyl)pyrazine-2-carboxamide], the IC50 is less than 50 nM.

As for `Nc1ncc(-c2cccc(C(=O)N[C@H]3CCc4ccccc43)c2)nc1C(=O)NC1CCCCNC1` (stereo partly drawn) [Example 967, 3-amino-N-azepan-3-yl-6-(3-{[(1S)-2,3-dihydro-1H-inden-1-ylamino]carbonyl}phenyl)pyrazine-2-carboxamide], the half-maximal inhibitory concentration (IC50) is less than 50 nM.

The assay is the same for the next values; noted with them: Table 11; Chk1 only; read-out: Chk1 IC50.
In the case of `Nc1ncc(-c2cccc(C(=O)N[C@H]3CCc4ccccc43)c2)nc1C(=O)NCCc1c[nH]cn1` [Example 767, 3-amino-6-(3-{[(1S)-2,3-dihydro-1H-inden-1-ylamino]carbonyl}phenyl)-N-[2-(1H-imidazol-4-yl)ethyl]pyrazine-2-carboxamide], the 50% inhibitory concentration (IC50) was in the range of 50 to 1000 nM.

As to `CNC(=O)c1nc(-c2cccc(CNC3CCc4cc(-n5cncn5)ccc43)c2)cnc1N` (stereo not drawn) [Example 512, 3-amino-N-methyl-6-[3-({[5-(1H-1,2,4-triazol-1-yl)-2,3-dihydro-1H-inden-1-yl]amino}methyl)phenyl]pyrazine-2-carboxamide], the IC50 lay within 50 to 1000 nM.

`Nc1ncc(-c2cccc(C(=O)NCc3ccccc3)c2)nc1C(=O)NCCCNC(=O)c1ccc(C(F)(F)F)nc1` [Example 652, 3-amino-6-(3-{[(phenylmethyl)amino]carbonyl}phenyl)-N-[3-({[6-(trifluoromethyl)pyridin-3-yl]carbonyl}amino)propyl]pyrazine-2-carboxamide]: the concentration for half-maximal inhibition (IC50) was not below 10000 nM.

`CNC(=O)c1nc(-c2cccc(CNC3c4ccccc4-c4ccccc43)c2)cnc1N` [Example 447, 3-amino-6-{3-[(9H-fluoren-9-ylamino)methyl]phenyl}-N-methylpyrazine-2-carboxamide]: the IC50 lay within 1000 to 10000 nM.

`Nc1nccc(-c2nc(-c3cccc(C(=O)NCc4ccccc4)c3)cnc2N)n1` [Example 608, 3-[5-amino-6-(2-aminopyrimidin-4-yl)pyrazin-2-yl]-N-(phenylmethyl)benzamide]: the IC50 was 1000 to 10000 nM.

For the compound `COc1cccc(-c2nnc(-c3nc(-c4cccc(CO)c4)cnc3N)[nH]2)c1` [Example 571, [3-(5-amino-6-{5-[3-(methyloxy)phenyl]-4H-1,2,4-triazol-3-yl}pyrazin-2-yl)phenyl]methanol], the half-inhibitory concentration (IC50) was not below 10000 nM.

In the case of `C/C(=N\Nc1nc2ccccc2s1)c1nc(-c2cccc(C(=O)NCc3ccccc3)c2)cnc1N` [Example 601, 3-{5-amino-6-[(1E)-N-1,3-benzothiazol-2-ylethanehydrazonoyl]pyrazin-2-yl}-N-(phenylmethyl)benzamide], the IC50 is not below 10000 nM.

Regarding `Nc1ncc(-c2cccc(C(=O)N[C@H]3CCc4ccccc43)c2)nc1C(=O)N[C@H]1CCN(C(=O)c2ccncc2)C1` [Example 649, 3-amino-6-(3-{[(1S)-2,3-dihydro-1H-inden-1-ylamino]carbonyl}phenyl)-N-[(3S)-1-(pyridin-4-ylcarbonyl)pyrrolidin-3-yl]pyrazine-2-carboxamide], the IC50 is not below 10000 nM.

Still in this assay, the particulars now being: read-out: Chk1 IC50.
Turning to `CNC(=O)c1nc(-c2noc(C3CCCC3)n2)cnc1N` [Example 67, 3-amino-6-(5-cyclopentyl-1,2,4-oxadiazol-3-yl)-N-methylpyrazine-2-carboxamide], the IC50 was not below 10000 nM.

In the case of `CNC(=O)c1nc(-c2cccc(NC(=O)CCc3ccccc3)c2)cnc1N` [Example 159, 3-amino-N-methyl-6-{3-[(3-phenylpropanoyl)amino]phenyl}pyrazine-2-carboxamide], the half-maximal inhibitory concentration (IC50) lay within 50 to 1000 nM.

In the case of `CNC(=O)c1nc(-c2cccc(C(=O)NCc3cccc(I)c3)c2)cnc1N` [Example 340, 3-amino-6-[3-({[(3-iodophenyl)methyl]amino}carbonyl)phenyl]-N-methylpyrazine-2-carboxamide], the IC50 was less than 50 nM.

With `CNC(=O)c1nc(-c2cccc(NC(=O)OCC3c4ccccc4-c4ccccc43)c2)cnc1N` [Example 317, 9H-fluoren-9-ylmethyl (3-{5-amino-6-[(methylamino)carbonyl]pyrazin-2-yl}phenyl)carbamate], the IC50 is 1000 to 10000 nM.

On to `CNC(=O)c1nc(-c2cccc(C(=O)NCc3c(OC)cc(OC)cc3OC)c2)cnc1N` [Example 258, 3-amino-N-methyl-6-{3-[({[2,4,6-tris(methyloxy)phenyl]methyl}amino)carbonyl]phenyl}pyrazine-2-carboxamide], for which the 50% inhibitory concentration (IC50) lay in the range of 50 to 1000 nM.

For the compound `CCN(Cc1ccncc1)C(=O)c1cccc(-c2cnc(N)c(C(=O)NC)n2)c1` [Example 116, 3-amino-6-(3-{[ethyl(pyridin-4-ylmethyl)amino]carbonyl}phenyl)-N-methylpyrazine-2-carboxamide], the IC50 is 1000 to 10000 nM.

On to `CNC(=O)c1nc(-c2cccc(C(=O)NCc3ccc(-c4cccs4)cc3)c2)cnc1N` [Example 377, 3-amino-N-methyl-6-{3-[({[4-(2-thienyl)phenyl]methyl}amino)carbonyl]phenyl}pyrazine-2-carboxamide], for which the 50% inhibitory concentration (IC50) is less than 50 nM.

For the compound `CNC(=O)c1nc(-c2cccc(C(=O)NCc3cc(F)c(F)cc3F)c2)cnc1N` [Example 251, 3-amino-N-methyl-6-[3-({[(2,4,5-trifluorophenyl)methyl]amino}carbonyl)phenyl]pyrazine-2-carboxamide], the IC50 lay in the range of 50 to 1000 nM.

Consider `CNC(=O)c1nc(-c2cccc(C(=O)NCc3ccc(I)cc3)c2)cnc1N` [Example 302, 3-amino-6-[3-({[(4-iodophenyl)methyl]amino}carbonyl)phenyl]-N-methylpyrazine-2-carboxamide], for which the IC50 is less than 50 nM.

As for `CNC(=O)c1nc(-c2cccc(C(=O)N[C@@H]3CCc4ccccc43)c2)cnc1N` [Example 96, 3-amino-6-(3-{[(1R)-2,3-dihydro-1H-inden-1-ylamino]carbonyl}phenyl)-N-methylpyrazine-2-carboxamide], the IC50 fell in the range of 1000 to 10000 nM.
